Experimental data from publication PMC7486443, “Generation of Phenothiazine with Potent Anti-TLK1 Activity for Prostate Cancer Therapy” (iScience, 2020).

Legend:
Experiment in all cases: biochemical
Design in all cases: DiscoverX KINOMEscan scanMAX competition binding panel, single concentration, percent of control; remaining binding: dose or concentration left out as unconfirmed
Conditions in all cases: KINOMEscan binding, percent of control; read-out: Table S4_SCANMAX REPORT - related to Fig. 1 / Percent Control
DMPK = DMPK (Homo sapiens, UniProt Q09013)
ACVR2B = ACVR2B (Homo sapiens, UniProt Q13705)
ACVR2B, sequence (Q13705 whole entry): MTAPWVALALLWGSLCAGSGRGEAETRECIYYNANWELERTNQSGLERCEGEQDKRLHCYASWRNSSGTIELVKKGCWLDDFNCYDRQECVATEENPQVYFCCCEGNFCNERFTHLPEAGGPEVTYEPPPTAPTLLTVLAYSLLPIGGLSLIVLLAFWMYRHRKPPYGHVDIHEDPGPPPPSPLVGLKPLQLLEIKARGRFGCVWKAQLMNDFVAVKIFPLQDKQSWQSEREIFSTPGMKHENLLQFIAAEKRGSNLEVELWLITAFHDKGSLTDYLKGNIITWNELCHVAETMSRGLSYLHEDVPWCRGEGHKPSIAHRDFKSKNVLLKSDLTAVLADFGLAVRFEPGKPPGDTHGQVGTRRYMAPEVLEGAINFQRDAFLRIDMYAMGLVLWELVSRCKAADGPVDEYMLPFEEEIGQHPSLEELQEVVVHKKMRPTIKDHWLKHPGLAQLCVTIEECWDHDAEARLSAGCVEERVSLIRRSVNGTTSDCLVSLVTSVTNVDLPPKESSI

EGFR(T790M) = EGFR(T790M) (Homo sapiens, UniProt P00533, T790M)
MLK3 = target: T1, MLK3 (Homo sapiens, UniProt Q16584)
T1 construct: gene MAP3K11
T1 sequence (Q16584 whole entry): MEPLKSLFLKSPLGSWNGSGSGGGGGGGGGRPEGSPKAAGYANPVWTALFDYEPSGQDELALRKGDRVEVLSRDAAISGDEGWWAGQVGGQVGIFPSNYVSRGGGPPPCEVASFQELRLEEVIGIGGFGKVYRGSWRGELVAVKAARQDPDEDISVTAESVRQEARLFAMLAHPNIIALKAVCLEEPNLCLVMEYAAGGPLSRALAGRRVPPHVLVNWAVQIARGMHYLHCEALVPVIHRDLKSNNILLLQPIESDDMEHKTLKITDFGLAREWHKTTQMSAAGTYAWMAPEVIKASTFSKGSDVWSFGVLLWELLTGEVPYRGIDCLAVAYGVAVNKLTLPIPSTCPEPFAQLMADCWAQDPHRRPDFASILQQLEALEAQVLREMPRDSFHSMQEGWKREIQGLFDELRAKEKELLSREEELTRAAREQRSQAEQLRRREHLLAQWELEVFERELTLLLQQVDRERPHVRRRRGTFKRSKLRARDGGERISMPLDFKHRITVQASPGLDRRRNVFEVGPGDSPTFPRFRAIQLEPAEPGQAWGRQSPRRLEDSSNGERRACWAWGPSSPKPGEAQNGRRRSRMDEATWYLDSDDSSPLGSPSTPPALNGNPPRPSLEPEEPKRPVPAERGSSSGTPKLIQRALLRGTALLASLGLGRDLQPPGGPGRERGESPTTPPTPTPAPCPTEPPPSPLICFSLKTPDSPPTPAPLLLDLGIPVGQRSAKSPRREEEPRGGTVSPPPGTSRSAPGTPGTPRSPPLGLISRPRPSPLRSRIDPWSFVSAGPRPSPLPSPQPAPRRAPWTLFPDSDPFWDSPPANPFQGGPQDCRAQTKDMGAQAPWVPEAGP

EGFR(L858R) = EGFR(L858R) (Homo sapiens, UniProt P00533, L858R)
EPHA4 = EPHA4 (Homo sapiens, UniProt P54764)
EPHA4, sequence (P54764 whole entry): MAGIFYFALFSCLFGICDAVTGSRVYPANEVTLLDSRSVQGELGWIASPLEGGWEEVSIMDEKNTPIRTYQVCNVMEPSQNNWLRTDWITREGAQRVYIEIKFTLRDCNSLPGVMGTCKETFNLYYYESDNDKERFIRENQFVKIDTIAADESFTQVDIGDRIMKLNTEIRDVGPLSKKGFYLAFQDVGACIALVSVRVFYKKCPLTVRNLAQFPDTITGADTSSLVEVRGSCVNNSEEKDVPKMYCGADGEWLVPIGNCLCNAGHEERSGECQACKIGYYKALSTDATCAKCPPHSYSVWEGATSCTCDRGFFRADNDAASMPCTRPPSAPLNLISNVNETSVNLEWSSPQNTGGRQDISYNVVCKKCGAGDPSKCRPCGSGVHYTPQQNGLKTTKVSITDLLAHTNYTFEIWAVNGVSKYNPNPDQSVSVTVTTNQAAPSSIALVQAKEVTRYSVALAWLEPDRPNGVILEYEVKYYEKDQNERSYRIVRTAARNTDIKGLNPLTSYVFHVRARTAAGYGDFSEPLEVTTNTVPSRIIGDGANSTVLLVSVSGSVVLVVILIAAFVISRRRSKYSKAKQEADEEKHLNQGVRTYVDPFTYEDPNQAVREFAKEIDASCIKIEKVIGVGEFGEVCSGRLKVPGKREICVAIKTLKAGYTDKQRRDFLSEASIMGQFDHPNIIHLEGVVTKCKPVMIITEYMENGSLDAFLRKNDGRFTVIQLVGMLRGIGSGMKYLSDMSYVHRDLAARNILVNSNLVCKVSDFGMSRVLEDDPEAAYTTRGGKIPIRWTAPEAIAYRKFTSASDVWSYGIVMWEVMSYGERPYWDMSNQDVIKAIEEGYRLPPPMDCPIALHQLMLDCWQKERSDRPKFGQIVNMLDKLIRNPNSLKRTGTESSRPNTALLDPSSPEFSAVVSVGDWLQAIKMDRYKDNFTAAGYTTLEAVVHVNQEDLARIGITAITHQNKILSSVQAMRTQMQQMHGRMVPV

AURKC = AURKC (Homo sapiens, UniProt Q9UQB9)
AURKC, sequence (Q9UQB9 whole entry): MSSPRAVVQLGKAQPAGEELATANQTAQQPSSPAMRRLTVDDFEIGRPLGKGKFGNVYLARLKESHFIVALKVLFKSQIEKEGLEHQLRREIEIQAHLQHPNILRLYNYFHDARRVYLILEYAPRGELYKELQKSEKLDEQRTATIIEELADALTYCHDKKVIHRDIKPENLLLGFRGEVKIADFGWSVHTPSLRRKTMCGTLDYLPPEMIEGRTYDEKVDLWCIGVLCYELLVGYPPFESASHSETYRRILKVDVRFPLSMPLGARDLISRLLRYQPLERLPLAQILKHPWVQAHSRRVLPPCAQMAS

[1] = target: T2, TYK2(JH2domain-pseudokinase) (Homo sapiens, UniProt P29597)
T2 construct: JH2domain-pseudokinase

PIK3CA(M1043I) = PIK3CA(M1043I) (Homo sapiens, UniProt P42336, M1043I)
[2] = target: T3, ABL1(Y253F)-phosphorylated (Homo sapiens, UniProt P00519, Y253F)
T3 construct: phosphorylated

AKT3 = AKT3 (Homo sapiens, UniProt Q9Y243)
AKT3, sequence (Q9Y243 whole entry): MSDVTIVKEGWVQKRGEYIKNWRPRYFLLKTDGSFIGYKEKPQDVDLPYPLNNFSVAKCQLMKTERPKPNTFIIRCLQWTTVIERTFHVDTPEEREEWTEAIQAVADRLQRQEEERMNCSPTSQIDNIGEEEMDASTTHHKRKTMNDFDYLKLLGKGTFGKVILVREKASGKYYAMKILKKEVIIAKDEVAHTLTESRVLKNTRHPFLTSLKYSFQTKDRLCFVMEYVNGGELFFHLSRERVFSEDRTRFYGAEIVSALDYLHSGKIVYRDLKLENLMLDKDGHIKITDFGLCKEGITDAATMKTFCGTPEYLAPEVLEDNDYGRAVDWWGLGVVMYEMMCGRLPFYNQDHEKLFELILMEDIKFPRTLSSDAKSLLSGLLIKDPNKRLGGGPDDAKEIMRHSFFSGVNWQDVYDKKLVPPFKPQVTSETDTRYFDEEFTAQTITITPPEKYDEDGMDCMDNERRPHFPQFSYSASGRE

INSR = INSR (Homo sapiens, UniProt P06213)
ERK8 = target: T4, ERK8 (Homo sapiens, UniProt Q8TD08)
T4 construct: gene MAPK15
T4 sequence (Q8TD08 whole entry): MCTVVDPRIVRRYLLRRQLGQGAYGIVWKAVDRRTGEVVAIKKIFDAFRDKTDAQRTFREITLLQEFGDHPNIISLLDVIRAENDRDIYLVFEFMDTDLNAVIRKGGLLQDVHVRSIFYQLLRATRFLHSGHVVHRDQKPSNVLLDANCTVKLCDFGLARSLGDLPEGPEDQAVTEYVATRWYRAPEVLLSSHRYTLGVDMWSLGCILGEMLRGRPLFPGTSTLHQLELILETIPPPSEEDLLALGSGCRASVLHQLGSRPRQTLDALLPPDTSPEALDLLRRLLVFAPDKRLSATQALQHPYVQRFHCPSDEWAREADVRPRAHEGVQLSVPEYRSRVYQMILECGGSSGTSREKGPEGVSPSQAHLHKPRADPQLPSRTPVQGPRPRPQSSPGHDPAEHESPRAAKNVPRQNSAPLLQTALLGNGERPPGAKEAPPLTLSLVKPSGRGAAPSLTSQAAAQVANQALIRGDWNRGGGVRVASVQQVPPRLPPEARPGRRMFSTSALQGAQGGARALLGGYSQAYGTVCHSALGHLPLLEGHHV

IKK-beta = target: T5, IKK-beta (Homo sapiens, UniProt O14920)
T5 construct: gene IKBKB
T5 sequence (O14920 whole entry): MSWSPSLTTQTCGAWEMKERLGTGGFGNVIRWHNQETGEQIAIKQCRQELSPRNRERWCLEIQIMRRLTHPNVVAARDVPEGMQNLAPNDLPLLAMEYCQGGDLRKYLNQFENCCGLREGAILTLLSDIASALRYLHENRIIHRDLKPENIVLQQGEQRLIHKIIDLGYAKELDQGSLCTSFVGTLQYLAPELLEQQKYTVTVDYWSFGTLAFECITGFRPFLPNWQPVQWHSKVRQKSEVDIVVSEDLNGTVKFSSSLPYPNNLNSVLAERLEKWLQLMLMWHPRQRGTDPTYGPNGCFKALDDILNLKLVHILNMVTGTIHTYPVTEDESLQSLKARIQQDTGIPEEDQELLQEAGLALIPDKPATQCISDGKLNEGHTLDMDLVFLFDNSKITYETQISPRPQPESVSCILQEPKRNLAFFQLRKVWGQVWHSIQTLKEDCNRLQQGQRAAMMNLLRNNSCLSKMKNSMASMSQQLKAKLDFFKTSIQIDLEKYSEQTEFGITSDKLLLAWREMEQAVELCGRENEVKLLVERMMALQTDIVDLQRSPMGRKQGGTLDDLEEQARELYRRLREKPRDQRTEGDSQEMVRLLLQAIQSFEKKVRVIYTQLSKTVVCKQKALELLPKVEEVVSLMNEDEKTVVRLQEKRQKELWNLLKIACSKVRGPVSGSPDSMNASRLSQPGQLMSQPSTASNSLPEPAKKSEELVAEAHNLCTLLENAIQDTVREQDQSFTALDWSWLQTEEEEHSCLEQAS

TGFBR2 = TGFBR2 (Homo sapiens, UniProt P37173)
NDR1 = target: T6, NDR1 (Homo sapiens, UniProt Q15208)
T6 construct: gene STK38
T6 sequence (Q15208 whole entry): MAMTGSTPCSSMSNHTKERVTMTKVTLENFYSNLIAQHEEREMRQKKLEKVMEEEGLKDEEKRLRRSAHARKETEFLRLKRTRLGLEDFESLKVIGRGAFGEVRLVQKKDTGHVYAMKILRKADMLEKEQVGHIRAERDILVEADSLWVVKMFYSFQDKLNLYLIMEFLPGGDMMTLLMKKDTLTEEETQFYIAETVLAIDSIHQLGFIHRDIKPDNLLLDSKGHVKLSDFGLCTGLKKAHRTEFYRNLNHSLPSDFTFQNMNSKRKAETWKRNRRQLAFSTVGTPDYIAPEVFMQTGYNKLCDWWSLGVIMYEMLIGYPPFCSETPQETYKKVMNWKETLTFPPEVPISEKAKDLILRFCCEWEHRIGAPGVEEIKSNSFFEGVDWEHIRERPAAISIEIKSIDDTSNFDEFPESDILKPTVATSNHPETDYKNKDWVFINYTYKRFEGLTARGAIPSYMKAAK

FLT3(R834Q) = FLT3(R834Q) (Homo sapiens, UniProt P36888, R834Q)
PRKG2 = PRKG2 (Homo sapiens, UniProt Q13237)

How did the remaining binding (DMPK) turn out when c1ccc2c(c1)Sc1ccccc1N2CCN1CCOCC1 [J54] was run?
The remaining binding was 85%.

What about the remaining binding (ACVR2B) of the same compound?
Its remaining binding is 86%.

And the remaining binding (EGFR(T790M))?
The remaining binding was 96%.

What about the remaining binding (MLK3) of the same compound?
The remaining binding was 100%.

What about the remaining binding (EGFR(L858R)) of the same compound?
The remaining binding was 92%.

What about the remaining binding (EPHA4) of the same compound?
Its remaining binding is 100%.

What about the remaining binding (AURKC) of the same compound?
Its remaining binding is 100%.

What about the remaining binding [1] of the same compound?
The remaining binding was 100%.

What about the remaining binding (PIK3CA(M1043I)) of the same compound?
Its remaining binding is 98%.

What about the remaining binding [2] of the same compound?
Its remaining binding is 79%.

What about the remaining binding (AKT3) of the same compound?
The remaining binding was 84%.

And the remaining binding (INSR)?
Its remaining binding is 68%.

What about the remaining binding (ERK8) of the same compound?
Its remaining binding is 89%.

And the remaining binding (IKK-beta)?
Its remaining binding is 100%.

And the remaining binding (TGFBR2)?
Its remaining binding is 99%.

What about the remaining binding (NDR1) of the same compound?
The remaining binding was 100%.

What about the remaining binding (FLT3(R834Q)) of the same compound?
The remaining binding was 100%.

What about the remaining binding (PRKG2) of the same compound?
The remaining binding was 99%.
